We go through 17 compounds from patent publication US6075029A, “Xanthine modulators of metabolism of cellular P-450” (Cell Therapeutics, Inc., priority 1998, dated 2000).

One data set has as its target T1, P-4501A2 (Homo sapiens, UniProt P05177).
T1 sequence (P05177 1-516): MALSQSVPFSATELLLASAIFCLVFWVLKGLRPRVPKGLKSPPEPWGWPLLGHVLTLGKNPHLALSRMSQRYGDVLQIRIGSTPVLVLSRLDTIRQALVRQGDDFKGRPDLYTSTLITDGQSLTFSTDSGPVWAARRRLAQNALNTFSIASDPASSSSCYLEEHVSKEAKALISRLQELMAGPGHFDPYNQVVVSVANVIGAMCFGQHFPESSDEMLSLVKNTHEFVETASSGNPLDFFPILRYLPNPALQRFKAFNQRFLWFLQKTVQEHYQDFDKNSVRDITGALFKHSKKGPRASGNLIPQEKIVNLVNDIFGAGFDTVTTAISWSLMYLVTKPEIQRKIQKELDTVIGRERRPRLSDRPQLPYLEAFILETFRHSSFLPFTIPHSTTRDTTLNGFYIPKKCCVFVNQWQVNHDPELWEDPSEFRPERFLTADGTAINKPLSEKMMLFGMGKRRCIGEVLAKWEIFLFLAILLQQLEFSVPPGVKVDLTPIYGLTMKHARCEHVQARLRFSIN
In words: Inhibition of P-450 mediated caffeine metabolism to paraxanthine in human liver microsomes. To be noted: for inhibition of P-450-mediated caffeine metabolism (in words): human liver microsomes, summary of Table 1; for activity at 0 h, 100 µM / activity at 5 min, 100 µM / activity at 20 min, 100 µM: human. How it is done:
The model system directly measures inhibition of P-4501A2-mediated metabolism in the physiological environment of human liver microsomes. Measurement of drug metabolism in a microsome system is directly predictive of liver metabolism in vivo. Thus, microsome data can be used to estimate the in vivo circulating half-life of compounds that are primarily metabolized in the liver.
Microsomes were prepared by standard techniques from four human livers. […] Three sets of enantiomers, CT2408 R&S, CT2410 R&S, and CT2412 R&S, were evaluated for inhibition of caffeine metabolism to paraxanthine by P-450.
Briefly, the inventive compounds were preincubated in microsomes with NADPH at concentrations of 100 μM for 0, 5, and 20 minutes. Samples containing only buffer, LSF, or furafylline were used as controls.
At the end of the preincubation period, the samples were diluted in a solution of NADPH and caffeine. The samples then were incubated for twenty minutes. Hydroxyethyl theophylline was added as an internal standard, and the samples were analyzed for paraxanthine via HPLC. Decreased paraxanthine formation is indicative of inhibition of P-450-mediated caffeine metabolism.
Incubation conditions and analysis of paraxanthine
To 200 μL microsomal suspension (HL-124; 20 mg/mL protein, P-450 specific activity 0.24 nmol/mg protein) and 100 μL 8.0 mM NADPH (Sigma, tetrasodium salt) in 100 mM phosphate buffer pH 7.4 preincubated for 2 minutes at 37° were added 100 μL of test compound solution (400 μM) in phosphate buffer ([…], pH 7.4). The solution then was incubated at 37° with agitation for 0, 5, and 20 minutes at which times 100 μL of the solution was transferred to another tube containing 200 μL 12.5 mM caffeine and 200 μL 5.0 mM NADPH which had been warmed at 37° for 2 minutes. The suspensions then were incubated for 20 minutes, 200 μL acetonitrile added, and the tubes placed on ice.
After all incubations were finished, 50 μL β-hydroxyethyl theophylline (50 μg/mL, HET) was added as an internal standard. Paraxanthine standards were prepared in 0.5 mL phosphate buffer containing 2.0 mg boiled microsomal protein ranging in concentration from 0.433 to 13.9 nmol/sample.
The suspensions then were extracted for 5 minutes with 7.0 mL methylene chloride (Fisher Optima grade), centrifuged at 3,000 g and the aqueous layer aspirated to waste. An aliquot of the organic (5.5 mL) was then transferred to another tube, evaporated to dryness under nitrogen at 30°, and reconstituted in 20% methanol/water.
Thirty microliters of reconstituted sample were then applied to an Hewlett Packard 1050 HPLC system equipped with a Rainin Microsorb™ 4.6×100 mm column with 3 μm C-18 packing. Mobile phase was maintained at 1.0 mL/min and changed from 2:13:85 to 2:20:78 acetonitrile:methanol:25 mM phosphate buffer, pH 5 over 10 minutes, the column was then washed by increasing the acetonitrile to 20% prior to re-equilibration for the next injection. Column eluent was monitored at 285 nm and paraxanthine, HET, and caffeine respectively eluted at 5.3, 6.6, and 9.8 minutes.

The subject of a further data set is LSF metabolism. In words: Co-administration of furafylline with LSF: circulating half-life of LSF. Type of data set: in vivo. To be noted: co-administered with LSF.
The subject of a further data set is caffeine metabolism. To be noted: cited from earlier work.
The subject of data set [1] is P-450IA2. The note with it: liver; Sesardic et al.; cited from earlier work.
Data set [2] relates to P-450IA2. The note with it: Lillibridge et al.; cited from earlier work.
The conditions of data set [3]: human, in vivo; cited from earlier work.

SMILES strings stand for the structures.

On to `Cc1nc2c([nH]1)c(=O)n(CCCCC(C)O)c(=O)n2C` (stereo not drawn) [CT2408 R&S, 1-(5-Hydroxyhexyl)-3,8-dimethylxanthine], for which, on P-4501A2, the “inhibition of P-450-mediated caffeine metabolism (in words)” value is given as “showed similar inhibition”.

Regarding `Cc1nc2c([nH]1)c(=O)n(CCCC[C@@H](C)O)c(=O)n2C` [CT2408R, (R)-1-(5-Hydroxyhexyl)-3,8-dimethylxanthine], on P-4501A2 (liver microsomes), the activity at 0 h, 100 µM turned out to be 95.2%; the activity at 5 min, 100 µM was found to be 73.9%; the activity at 20 min, 100 µM is 46.6%.

`Cc1nc2c([nH]1)c(=O)n(CCCC[C@H](C)O)c(=O)n2C` [CT2408S, (S)-1-(5-Hydroxyhexyl)-3,8-dimethylxanthine]: at P-4501A2 (liver microsomes), the activity at 0 h, 100 µM was 97.2%; the activity at 5 min, 100 µM was found to be 71%; the activity at 20 min, 100 µM came to 41.8%.

As to `Cc1nc2c(c(=O)n(CCCCC(C)O)c(=O)n2C)n1C` (stereo not drawn) [CT2410, 1-(5-Hydroxyhexyl)-3,7,8-trimethylxanthine], the “inhibition of P-450-mediated caffeine metabolism (in words)” value at P-4501A2 is given as “Neither CT2410 (1-(5-Hydroxyhexyl)-3,7,8-trimethylxanthine) nor LSF ((R)-1-(5-Hydroxyhexyl)-3,7-dimethylxanthine) had any inhibitory effect”.

In the case of `Cc1nc2c(c(=O)n(CCCC[C@@H](C)O)c(=O)n2C)n1C` [CT2410R, 1-(5-Hydroxyhexyl)-3,7,8-trimethylxanthine], on P-4501A2 (liver microsomes), the activity at 0 h, 100 µM came out at 92.8%; the activity at 5 min, 100 µM came out at 87.8%; the activity at 20 min, 100 µM was determined as 88.3%.

In the case of `Cc1nc2c(c(=O)n(CCCC[C@H](C)O)c(=O)n2C)n1C` [CT2410S, 1-(5-Hydroxyhexyl)-3,7,8-trimethylxanthine], at P-4501A2 (liver microsomes), the activity at 0 h, 100 µM came to 101%; the activity at 5 min, 100 µM was determined as 91%; the activity at 20 min, 100 µM stood at 83.5%.

In the case of `Cc1nc2c([nH]1)c(=O)n(CCCCC(C)O)c(=O)n2Cc1ccco1` (stereo not drawn) [CT2412 R&S, 3-(2-furylmethyl)-1-(5-hydroxyhexyl)-8-methylxanthine], at P-4501A2, the “inhibition of P-450-mediated caffeine metabolism (in words)” value was “showed similar inhibition”.

As to `Cc1nc2c([nH]1)c(=O)n(CCCC[C@@H](C)O)c(=O)n2Cc1ccco1` [CT2412R, (R)-3-(2-Furylmethyl)-1-(5-hydroxyhexyl)-8-methylxanthine], at P-4501A2 (liver microsomes), the activity at 0 h, 100 µM came to 101%; the activity at 5 min, 100 µM turned out to be 82.8%; the activity at 20 min, 100 µM came out at 56.3%.

In the case of `Cc1nc2c([nH]1)c(=O)n(CCCC[C@H](C)O)c(=O)n2Cc1ccco1` [CT2412S, (S)-3-(2-Furylmethyl)-1-(5-hydroxyhexyl)-8-methylxanthine], on P-4501A2 (liver microsomes), the activity at 0 h, 100 µM was determined as 98.7%; the activity at 5 min, 100 µM is 75.6%; the activity at 20 min, 100 µM was found to be 51.7%.

As for `Cc1nc2c([nH]1)c(=O)n(C)c(=O)n2Cc1ccco1` [FRF, 1,8-dimethyl-3-(2'furfuryl)-methylxanthine], in the data set on LSF metabolism, the “circulating half-life of LSF on co-administration” value is recorded as “increase the circulating half-life of the methylxanthine compound LSF”. For the same compound, at P-4501A2 (microsomes), the activity at 0 h, 100 µM was 36.8%; the activity at 5 min, 100 µM came to 13.9%; the activity at 20 min, 100 µM stood at 10.1%. The “circulating half-life of caffeine” value in the data set with caffeine metabolism (by inhibiting N3 demethylation) is “increases the circulating half-life of caffeine”. For the same compound, the “serum caffeine levels in patients treated” value with caffeine metabolism (clinical trials, Tarrus et al.) is “elevated serum caffeine levels”. Besides, in the data set on P-450IA2 [1], the “inhibition of P-450IA2 / N3 demethylation of caffeine” value was “inhibiting the P-450 isozyme, P-450IA2, which catalyzes N3 demethylation of caffeine in the liver”.

In the case of `C[C@@H](O)CCCCn1c(=O)c2c(ncn2C)n(C)c1=O` [LSF, (R)-1-(5-Hydroxyhexyl)-3,7-dimethylxanthine, reference compound], the “inhibition of P-450-mediated caffeine metabolism (in words)” value on P-4501A2 is “Neither CT2410 (1-(5-Hydroxyhexyl)-3,7,8-trimethylxanthine) nor LSF ((R)-1-(5-Hydroxyhexyl)-3,7-dimethylxanthine) had any inhibitory effect”. At P-4501A2 (liver microsomes), the activity at 0 h, 100 µM turned out to be 101%; the activity at 5 min, 100 µM amounted to 91%; the activity at 20 min, 100 µM came to 85.8%. In addition, the site of metabolism result in the data set on P-450IA2 [2] is “primary metabolites of LSF and PTX result from modification of the N1 substituent, not the N3 substituent”.

With `CC(=O)CCCCn1c(=O)c2c(ncn2C)n(C)c1=O` [PTX], the site of metabolism entry in the data set with P-450IA2 [2] was “primary metabolites of LSF and PTX result from modification of the N1 substituent, not the N3 substituent”.

`CC(C(=O)O)c1ccc2oc(-c3ccc(Cl)cc3)nc2c1` (stereo not drawn) [benoxaprofen]: the “toxic / side effects” value in data set [3] is reported as “lethal side effects”.

Regarding `Cn1c(=O)c2c(ncn2C)n(C)c1=O` [caffeine, 1,3,7-trimethylxanthine], the site of metabolism result with P-450IA2 [2] is listed as “P-450IA2 mediates demethylation of caffeine at the N3 position of the xanthine ring”.

On to `CC[C@H](CO)NCCN[C@H](CC)CO` [ethambutol R,R-enantiomer], for which, in data set [3], the “toxic / side effects” value was “can cause blindness”.

For the compound `O=C1CC[C@@H](N2C(=O)c3ccccc3C2=O)C(=O)N1` [thalidomide R-isomer], the sedative activity entry in data set [3] was “desired sedative activity resided in the R-isomer”.

With `O=C1CC[C@H](N2C(=O)c3ccccc3C2=O)C(=O)N1` [thalidomide S-isomer], the “toxic / side effects” value in data set [3] is on record as “teratogen, causing the birth defects in babies born to mothers using this drug”.
